The text below walks through data of patent publication US20210205340A1, “COMPOSITIONS COMPRISING SIALYLATED OLIGOSACCHARIDES FOR USE IN INFANTS OR YOUNG CHILDREN TO PREVENT LATER IN LIFE OBESITY OR RELATED COMORBIDITIES AND PROMOTE A HEALTHY GROWTH” (NESTEC S.A., priority 2016, published 2021).

For this assay, the system named is NCI-H716 cells. The assay can be described thus: Calcium assay: activation of NCI-H716 cells by sialylated oligosaccharides (change in fluorescence ratio from intracellular calcium increase). Format: cell-based, human. To be noted: for significance of the increase in fluorescence ratio / concentration dependence of calcium response / activation of NCI-H716 cells / fluorescence ratio (intracellular calcium response): NCI-H716 cells; for significance of the increase in fluorescence ratio: 5 mg/mL, 10 mg/mL and 20 mg/mL, p<0.05 vs Negative control, two-sided t-test; for concentration dependence of calcium response / activation of NCI-H716 cells: 1-20 mg/mL, FIG. 1 / FIG. 3; for fluorescence ratio (intracellular calcium response): all the tested concentrations (1 mg/mL, 5 mg/mL, 10 mg/mL and 20 mg/mL), vs buffer negative control; for intracellular calcium release: in vitro system with endocrine intestinal cells, indicator of potential GLP-1 secretagogue capacity. An excerpt: NCI-H716 is a cell line derived from human L-cells, the enteroendocrine cells that secrete GLP-1, and it is often used as a model of GLP-1 secretion. Unstimulated NCI-H716 cells secrete a basal level of GLP-1 and activation of the cells leads to dose-dependent increase in GLP-1 secretion. Activation of the NCI-H716 cells and subsequent release of GLP-1 can be triggered by nutrients such as palmitic acid, oleic acid, and meat hydrolysate, Gastrin Releasing Peptide (GRP), the cholinergic molecule Carbachol, bitter compounds such as denatonium, ginsenosides and other molecules.
Activation of NCI-H716 cells by ionomycin, GRP, denatonium, or ginsenosides leads to increased intracellular calcium. Elevation of intracellular calcium is therefore a marker of cell activation and in NCI-H716 cells it could be considered as an indicator of GLP-1 release.
A calcium assay was used to determine if NCI-H716 cells respond to human milk oligosaccharides (sialylated oligosaccharides) or components/precursors thereof (lactose and sialic acid). In this assay, cultured NCI-H716 cells were loaded with a fluorescent calcium sensitive dye then stimulated with the HMOs. The response to the stimulus was measured by change in fluorescence ratio in consequence of intracellular calcium increase. The tested HMOs were 3′-sialyllactose (3SL) and 6′-sialyllactose (6SL). They were tested individually.
GRP (Gastrin Releasing Peptide): positive control
Tested HMOs concentrations: 1 mg/mL, 5 mg/mL, 10 mg/mL and 20 mg/mL
Tested lactose and sialic acid concentrations: 5.5 mg/mL and 4.72 mg/mL respectively (correspond to the amounts contained in 10 mg/mL of 3SL, in order to make a suitable comparison with 10 mg/mL of 3SL)
In general terms: Calcium flux is commonly read through the fluorescence of an indicator in the cells.

“Also recorded” adds a separate entry of the source.

With `CC(=O)N[C@H]1[C@H]([C@H](O)[C@H](O)CO)O[C@@](OC[C@H]2O[C@@H](O[C@H]3[C@H](O)[C@@H](O)C(O)O[C@@H]3CO)[C@H](O)[C@@H](O)[C@H]2O)(C(=O)O)C[C@@H]1O` (stereo partly drawn) [6SL, (6R)-5-Acetamido-3,5-dideoxy-6-[(1R,2R)-1,2,3-trihydroxypropyl]-β-L-threo-hex-2-ulopyranonosyl-(2->6)β-D-galactopyranosyl-(1->4)-D-glucopyranose], the “significance of the increase in fluorescence ratio” value is recorded as “significant”, the “concentration dependence of calcium response / activation of NCI-H716 cells” value is given as “clear concentration dependent calcium response; also recorded: dose dependent activation”, the “fluorescence ratio (intracellular calcium response)” value is reported as “enhanced” and the intracellular calcium release entry is “increased intracellular calcium release”.

Take `OC[C@H]1O[C@@H](O[C@H]2[C@H](O)[C@@H](O)C(O)O[C@@H]2CO)[C@H](O)[C@@H](O)[C@H]1O` (some centres unmarked) [Lactose, lactose, reference compound]: the “activation of NCI-H716 cells (calcium response)” value (lactose 5.5 mg/mL (amount contained in 10 mg/mL of 3SL), FIG. 2) is “did not activate the cells”.

Take `CC(=O)N[C@H]1[C@H]([C@H](O)[C@H](O)CO)OC(O)(C(=O)O)C[C@@H]1O` (some centres unmarked) [sialic acid, N-acetylneuraminic acid, reference compound]: the “activation of NCI-H716 cells (calcium response)” value (sialic acid 4.72 mg/mL (amount contained in 10 mg/mL of 3SL), FIG. 2) is listed as “did not activate the cells”.

Regarding `CC(=O)N[C@H]1[C@H]([C@H](O)[C@H](O)CO)O[C@@](O[C@H]2[C@@H](O)[C@@H](CO)O[C@@H](O[C@H]3[C@H](O)[C@@H](O)C(O)O[C@@H]3CO)[C@@H]2O)(C(=O)O)C[C@@H]1O` (stereo partly drawn) [3SL, (6R)-5-Acetamido-3,5-dideoxy-6-[(1R,2R)-1,2,3-trihydroxypropyl]-β-L-threo-hex-2-ulopyranonosyl-(2->3)β-D-galactopyranosyl-(1->4)-D-glucopyranose], the “significance of the increase in fluorescence ratio” value is recorded as “significant”, the “concentration dependence of calcium response / activation of NCI-H716 cells” value is “clear concentration dependent calcium response; also recorded: dose dependent activation”, the “fluorescence ratio (intracellular calcium response)” value is recorded as “enhanced” and the intracellular calcium release result was “increased intracellular calcium release”. Moreover, the “specificity of the calcium response” value (3SL 10 mg/mL compared with its components lactose and sialic acid, FIG. 2) was “specific”.
